Data as given in PubChem BioAssay (NCI).
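Results reflect a 48-hour exposure of cells in 96-well plates to compound at five concentrations. Here, GI50 denotes the concentration required for 50% inhibition of growth. TGI marks complete inhibition of growth.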

Tests used:
Assay in all cases: inhibition of tumour cell growth, NCI panel, 48 h
SNB-19 CNS = test system: SNB-19 CNS
OVCAR-8 ovarian = test system: OVCAR-8 ovarian
EKVX NSCLC = test system: EKVX NSCLC
SN12C renal = test system: SN12C renal
UO-31 renal = test system: UO-31 renal
MOLT-4 leukemia = test system: MOLT-4 leukemia
SF-539 CNS = test system: SF-539 CNS
RXF 393 renal = test system: RXF 393 renal
MDA-MB-231 breast = test system: MDA-MB-231 breast
HOP-62 NSCLC = test system: HOP-62 NSCLC

Compound	GI50 (SNB-19 CNS) [µM]	TGI (SNB-19 CNS) [µM]	GI50 (OVCAR-8 ovarian) [µM]	TGI (OVCAR-8 ovarian) [µM]	GI50 (EKVX NSCLC) [µM]	TGI (EKVX NSCLC) [µM]	GI50 (SN12C renal) [µM]	TGI (SN12C renal) [µM]	GI50 (UO-31 renal) [µM]	TGI (UO-31 renal) [µM]	GI50 (MOLT-4 leukemia) [µM]	TGI (MOLT-4 leukemia) [µM]	GI50 (SF-539 CNS) [µM]	TGI (SF-539 CNS) [µM]	GI50 (RXF 393 renal) [nM]	TGI (RXF 393 renal) [µM]	GI50 (MDA-MB-231 breast) [µM]	TGI (MDA-MB-231 breast) [µM]	GI50 (HOP-62 NSCLC) [µM]	TGI (HOP-62 NSCLC) [µM]
COc1ccc(-c2nc3ccccn3c2/C=C/C(=O)c2cc(OC)c(OC)c(OC)c2)cc1	25.2	> 100	3.92	> 100	7.42	> 100	11.4	> 100	1.31	> 100	32.9	> 100	2.39	11.5	2940	> 100	5.22	> 100	36.2	> 100
CCN(C(=O)c1cc(F)ccc1Oc1cncnc1N1CC2(CCN(CC3CCC(NS(=O)(=O)CC)CC3)CC2)C1)C(C)C (stereo unspecified)	> 100	> 100	> 100	> 100	> 100	> 100	> 100	> 100	> 100	> 100	> 100	> 100	> 100	> 100	> 100000	> 100	> 100	> 100	> 100	> 100
COc1ccc(/C(C#N)=C/c2ccc(OC)c(OC)c2)cc1		> 100		> 100		> 100		> 100		> 100		> 100		> 100		> 100		> 100		> 100
C[C@@H](CO)[C@@H]1CCC=C2CC[C@]3(C)[C@H](CC[C@@H]4[C@@]5(C)CCCNC(C)(C)[C@@H]5CC[C@]43C)[C@H]21	2.03	4.15	2.02	4.1	4.18	17.3	3.11	12.5	2.21	6.8	2.5	7.27	3.48	14.6	2390	6.25	1.94	4.03	2.08	4.21
O=C(NCc1ccc(Cn2c(=O)sn(-c3ccccc3)c2=O)cc1)OCc1ccc2c(Br)cc(Br)c(O)c2n1	1.55	2.9	0.762	2.44	1.5	3.12	0.703	2.06	0.392	1.77	0.503	> 22.3	0.793	2.07	546	1.83	1.18	2.53	1.52	3.45
c1cc(CNCCN2CCNCC2)ccn1		> 100		> 100		> 100		> 100		> 100		> 100		> 100		> 100		> 100		> 100
C=C1CC/C=C(\C)C(=O)C[C@@H]2[C@@H]1CC2(C)C		25.7		29.7		27.3		13		7.64				8.46		4.33		28.6		31.1
NC(=O)c1cc(-c2ccc(F)cc2)cc(-c2ccncc2)c1N	24.3	> 25	> 25	> 25	> 25	> 25	> 25	> 25	7.88	> 25	> 25	> 25	> 25	> 25	> 18600	> 25	> 25	> 25	> 25	> 25
O=c1[nH]c(=O)n(C2CC(O)C(CO)O2)cc1C1=NC1 (stereo unspecified)		> 100		> 100		> 100		> 100		> 100		> 100		> 100		> 100		> 100		> 100
CC1OC(OC2C(O[C@H]3CC[C@@]4(C)C(=CC[C@H]5[C@@H]6C[C@@H]7O[C@]8(CC[C@H](C)CN8)[C@@H](C)[C@@H]7[C@@]6(C)CC[C@@H]54)C3)OC(CO)C(O)C2OC2OC(CO)C(O)C(O)C2O)C(O)C(O)C1O (stereo partly specified)		35.6		31.1		32.3		38.6		33.2		42.1		33.8		31.5		38.8		
CN(CC(=O)N(Cc1ccc(C2CCCCC2)cc1)c1ccc(C(=O)O)c(O)c1)S(=O)(=O)c1c(F)c(F)c(F)c(F)c1F	11.3	25.1	7.11	20.5	15.7	29.8	6.74	24.4	12	25.8	3.12	12	18.2	35	1890	3.76	1.86	4.13	13.4	30.4
Nc1nc(-c2ccccc2)nc(N)c1N=O	14.4	33	7.55	53.7	20.1	> 100	4.51	18.1	10	29.2	17.4	> 100	5.69	19.5	2070	7.07	12.6	28.9	12.8	30.5
CC(=O)O[C@]1(C(C)=O)CC[C@H]2[C@@H]3C=C(C)C4=CC(=O)CC[C@]4(C)[C@H]3CC[C@@]21C	> 82.9	> 100	> 75.4	> 100	21	> 100	> 100	> 100	> 100	> 100	43.2	> 100	> 61.4	> 100	57500	> 100	> 100	> 100	> 100	> 100
O=C(Nc1ccccc1)NS(=O)(=O)c1ccc(-n2nc3c(c2-c2ccc(Cl)cc2)Cc2ccccc2-3)cc1	61.5	> 100	24.7	86.8	15.8	78.9	23.2	66.6	24.5	> 100	7.05	42.4	18.8	45.6	22200	85.7	14.7	63.3	72	> 100
COc1ccc2c(c1)C(=O)c1c-2c(Nc2ccc(Cl)cc2)nc2ccccc12	14.4	44	11.4	29.6	10.1	95.3	17.7	57.1	25.8	> 100	27.5	> 100	8.76	26.2	2060	6.35	4.46	18.9	2.86	11.3
O=C(O)c1cccc(N=Nc2c(S(=O)(=O)O)ccc3c2C(=O)c2ccccc2C3=O)c1O		> 100		> 100		> 100		> 100		> 100		> 100		> 100		> 100		> 100		> 100
CCNC(=O)c1cc2c(-c3cc(C(C)(C)O)ccc3Oc3c(C)cc(F)cc3C)cn(C)c(=O)c2[nH]1	2.05	14.2	2.54	20.4	2.26	16.4	3.03	16.8	0.1	10.9	2.36	10.2	1.92	13.2	1810	5.2	1.08	15.9	0.914	13.7
Nc1nc(-c2ccc(F)cc2)c(-c2ccc3ncccc3n2)s1	> 25	> 25	15.6	> 25	11.2	> 25	10.1	> 25	4.68	> 25	17.4	> 25	14.4	> 25	12300	> 25	> 25	> 25	24.9	> 25
COC(=O)C1=C(C)NC(C)=C(C(=O)OC)C1/C=C(Cl)/C=C/c1ccccc1	37.7	> 100	36	> 100	23.5	96.4	19.2	41.6	23.9	> 100	18.4	41	21	41.2	18400	46.6	17.9	36.7	20.1	38.5
COc1ccc(OC)c(/C=C(/C)[N+](=O)[O-])c1	9.52	23.3	2.13	4.91	2.76	11.5	2.17	5.02	1.42	2.8	3.32	> 100	2.29	5.04	1720	3.18	2.71	7.45	2.31	4.86
COc1cc(C2=C(C#Cc3ccccc3)COC2=O)cc(OC)c1OC	7.27	> 76	5.37	> 45.4	18.2	38.1	0.261	1.38	3.6	> 32.7	30.1	> 100	0.646	4.87	1350	> 100	0.492	2.95	0.706	2.61
N#Cc1c(N)nc(N2CCOCC2)c(C#N)c1-c1cccnc1	77.2	> 100	> 100	> 100	83.8	> 100	97.2	> 100	24.1	> 100	> 100	> 100	> 100	> 100	> 100000	> 100	27.6	> 100	24.9	> 100
COC(=O)CCCC(=O)O		> 100		> 100		> 100		> 100		> 100		> 100				> 100		> 100		> 100
COc1cc(OC)c(/C=C/c2cnc3ccccc3n2)c(OC)c1		> 10		> 10		> 10		> 10		1.56				> 10		> 10		> 10		> 10
O=C1c2ccccc2C(=O)c2c1ccc(C1C(=O)c3ccccc3C1=O)c2-c1c(C2C(=O)c3ccccc3C2=O)ccc2c1C(=O)c1ccccc1C2=O		> 100		> 100		> 100		> 100		> 100		82.5		> 100		> 100		> 100		> 100
Nc1nc(-c2ccccc2)nc2c1[n+]([O-])c1ccccc1[n+]2[O-]		> 100		> 100		> 100		> 100		> 100				> 100		> 100		> 100		> 100
C=C1CCC2C(C)(C)CCC[C@]2(C)[C@H]1CO (stereo partly specified)	> 100	> 100	76.1	> 100	53.5	> 100	19.8	39.5	> 100	> 100	73.2	> 100			> 100000	> 100	50.2	> 100	> 100	> 100
Cc1c(COc2cc(OCc3cccc(C#N)c3)c(CN3C[C@H](O)C[C@@H]3C(=O)O)cc2Cl)cccc1-c1ccc2c(c1)OCCO2	15.6	29	27.1	> 100	18.1	41.2	15.7	29.5	16.6	30.2			15.2	29.2	16000	29.9	13.8	29.6	19.8	38.6
